Series [1] has as its system Serratia marcescens IAM 1184. Put plainly: In vitro antibacterial activity (minimum inhibitory concentration). In kind it is cell-based. The conditions noted are these: 37° C.; for Minimum inhibitory concentration: 20 hours, hydrochloride monohydrate. As for the experimental part: (§1) The in vitro antimicrobial activity of a typical compound in accordance with the present invention (hereinafter referred to as the present compound) was evaluated in terms of minimum inhibitory concentrations for various Gram-positive and Gram-negative bacteria. The Gram-positive bacteria used as test microorganisms included Bacillus subtilis, Staphylococcus aureus, Staphylococcus epidermidis and Streptococcus pyogenes, and the Gram-negative bacteria used as test microorganisms included Escherichia coli, Enterobacter cloacae, Klebsiella pneumoniae, Proteus vulgaris, Pseudomonas aeruginosa, Serratia marcescens, Salmonella enteritidis and Morganella morganii. The minimum inhibitory concentrations (for the test microorganisms cultured at 37° C. for 20 hours) were determined according to the standard method prescribed by the Japanese Chemotherapeutic Society (Journal of the Japanese Chemotherapeutic Society, Vol. 29, No. 1, p. 76, 1981). As the present compound, there was used (+)-9-fluoro-5-methyl-8-(4-methyl-1-piperazinyl)-6,7-dihydro-1,7-dioxo1H,5H-benzo[ij]quinolizine-2-carboxylic acid hydrochloride monohydrate which had been prepared in Example 1 described later. For purposes of comparison, control compounds were evaluated in the same manner as described above. These control compounds comprised the optically active (-)-isomer of the aforesaid compound (which had been prepared in Reference Example described later) and the racemate thereof.

Series [2] relates to Bacillus subtilis ATCC 6633. The series is described as above. In kind it is cell-based. The conditions noted are these: 37° C.; for Minimum inhibitory concentration: 20 hours, hydrochloride monohydrate. The procedure:
as §1

Series [3] concerns Streptococcus pyogenes ATCC 19615. The description is as above. In kind it is cell-based. The conditions noted are these: 37° C.; for Minimum inhibitory concentration: 20 hours, hydrochloride monohydrate. As for the experimental part: as §1
The subject of a further series is Enterobacter cloacae 963. Described as above. Conditions: 37° C.; for Minimum inhibitory concentration: 20 hours, hydrochloride monohydrate. In kind it is cell-based. The procedure: as §1
The test system of series [4] is Proteus vulgaris ATCC 13315. The series is described as above. The format is cell-based. The conditions noted are these: 37° C.; for Minimum inhibitory concentration: 20 hours, hydrochloride monohydrate. The procedure: as §1
Series [5] concerns Staphylococcus aureus FDA 209P JC-1. The description is as above. The conditions noted are these: 37° C.; for Minimum inhibitory concentration: 20 hours, hydrochloride monohydrate. The format is cell-based. The procedure:
as §1

Series [6] concerns Klebsiella pneumoniae PCI 602. Described as above. In kind it is cell-based. Conditions: 37° C.; for Minimum inhibitory concentration: 20 hours, hydrochloride monohydrate. The procedure: as §1
Series [7] has as its system Escherichia coli NIHJ JC-2. The series is described as above. The format is cell-based. Conditions: 37° C.; for Minimum inhibitory concentration: 20 hours, hydrochloride monohydrate. As for the experimental part:
as §1

The subject of series [8] is Staphylococcus epidermidis IAM 1296. The description is as above. Conditions: 37° C.; for Minimum inhibitory concentration: 20 hours, hydrochloride monohydrate. In kind it is cell-based. The procedure: as §1
Series [9] has as its system Pseudomonas aeruginosa PAO 1. The series is described as above. In kind it is cell-based. The conditions noted are these: 37° C.; for Minimum inhibitory concentration: 20 hours, hydrochloride monohydrate. The procedure:
as §1

The test system of series [10] is Morganella morganii IFO 3848. Described as above. The conditions noted are these: 37° C.; for Minimum inhibitory concentration: 20 hours, hydrochloride monohydrate. The format is cell-based. As for the experimental part:
as §1

Series [11] relates to Salmonella enteritidis G 14. Described as above. In kind it is cell-based. Conditions: 37° C.; for Minimum inhibitory concentration: 20 hours, hydrochloride monohydrate. The procedure:
as §1

Another series is described as follows: Solubility in water. In kind it is physicochemical. As for the experimental part: The solubilities of the present compound (which had been prepared in Example 1) and its racemate in water were determined.
Series [12] relates to various Gram-positive and Gram-negative bacteria. Put plainly: In vitro antibacterial activity over all test microorganisms (comparison of potency). The format is cell-based. Conditions: versus racemate. As for the experimental part:
as §1, with “These control compounds comprised the optically active (-)-isomer of the aforesaid compound (which had been prepared in Reference Example described later) and the racemate thereof.” left out

SMILES strings stand for the structures.

As to `CC1CC(=O)c2c(N3CCN(C)CC3)c(F)cc3c(=O)c(C(=O)O)cn1c23.Cl.O` (racemic) [Racemate, (±)-9-fluoro-5-methyl-8-(4-methyl-1-piperazinyl)-6,7-dihydro-1,7-dioxo-1H,5H-benzo[ij]quinolizine-2-carboxylic acid hydrochloride monohydrate], the MIC (commonly the least concentration at which growth counts as inhibited) in series [1] (Serratia marcescens, IAM1184, 20 h) was 1.56 µg/mL; in series [2] (Bacillus subtilis, ATCC6633, 20 h), 0.1 µg/mL; in [3] (Streptococcus pyogenes, ATCC19615, 20 h), 6.25 µg/mL; in the series with Enterobacter cloacae 963 (Enterobacter cloacae, 963, 20 h), 0.2 µg/mL; in series [4] (Proteus vulgaris, ATCC13315, 20 h), 0.2 µg/mL; in series [5] (Staphylococcus aureus, FDA209P, 20 h), 0.39 µg/mL. Also, the minimal inhibitory concentration (MIC) in [6] (Klebsiella pneumoniae, PCI602, 20 h) was 0.1 µg/mL; in series [7] (Escherichia coli, NIHJJC2, 20 h), 0.2 µg/mL; in series [8] (Staphylococcus epidermidis, IAM1296, 20 h), 1.56 µg/mL; in series [9] (Pseudomonas aeruginosa, PAO1, 20 h) it was 1.56 µg/mL; in [10] (Morganella morganii, IFO3848, 20 h), 0.1 µg/mL; in series [11] (Salmonella enterica, ENTERITIDIS, 20 h), 0.78 µg/mL. In addition, in the series “Solubility in water”, the solubility (in general, the dissolved amount per volume that the medium holds) was about 7 mg/mL.
Consider `CC1CC(=O)c2c(N3CCN(C)CC3)c(F)cc3c(=O)c(C(=O)O)cn1c23.Cl.O` (single isomer, unassigned; (-)) [(-)-isomer, (-)-9-fluoro-5-methyl-8-(4-methyl-1-piperazinyl)-6,7-dihydro-1,7-dioxo-1H,5H-benzo[ij]quinolizine-2-carboxylic acid hydrochloride monohydrate], for which the Minimum inhibitory concentration was 3.13 µg/mL in series [1]; 1.56 µg/mL in series [2]; over 100 µg/mL in series [3]; 3.13 µg/mL in the series with Enterobacter cloacae 963; 0.78 µg/mL in series [4]; 25 µg/mL in series [5]. Moreover, the Minimum inhibitory concentration in [6] was determined as 0.78 µg/mL; in [7], 3.13 µg/mL; in [8], 50 µg/mL; in series [9], 12.5 µg/mL; in series [10] it was 0.78 µg/mL; in series [11] it was 1.56 µg/mL.
`CC1CC(=O)c2c(N3CCN(C)CC3)c(F)cc3c(=O)c(C(=O)O)cn1c23.Cl.O` (single isomer, unassigned; (+)) [Present compound, (+)-9-fluoro-5-methyl-8-(4-methyl-1-piperazinyl)-6,7-dihydro-1,7-dioxo-1H,5H-benzo[ij]quinolizine-2-carboxylic acid hydrochloride monohydrate]: the “antibacterial activity relative to the racemate (compound [I])” value in series [12] was “about twice as potent”. Besides, the Minimum inhibitory concentration in series [1] is 0.39 µg/mL; in series [2] it was 0.05 µg/mL; in [3], 0.78 µg/mL; in the series on Enterobacter cloacae 963 it was 0.10 µg/mL; in [4], 0.10 µg/mL; in series [5] it was 0.20 µg/mL. For the same compound, the Minimum inhibitory concentration is at most 0.025 µg/mL in [6]; 0.10 µg/mL in series [7]; 0.39 µg/mL in series [8]; 0.78 µg/mL in series [9]; at most 0.025 µg/mL in series [10]; 0.20 µg/mL in series [11]. The compound also gave a solubility in “Solubility in water” of about 180 mg/mL. For the same compound, the “solubility relative to the racemate” value in the series “Solubility in water” (versus racemate) is recorded as “about 25 times”.

(Values after patent US4946844A, “Optically active benzoquinolizine compounds, process for preparing same, and antibacterial preparation containing same as active ingredient” (Tokyo Tanabe Co., Ltd., priority 1987, dated 1990).)
